{"source": "patent US12673039B2", "about": "“Methods of inducing autophagy using coumarin derivatives and related compounds” (Buck Institute for Research on Aging, priority 2019, dated 2026)", "key": {"[1]": {"system": "C. elegans", "assay": "C. elegans lifespan assays", "format": "in vivo", "text": "FIG. 21, panels A-F: AIC106 prevents neuronal loss and proteotoxicity in strains expressing human neurotoxic proteins. Panel A) Dopaminergic neuronal loss in day-5 UA44 worms was quantified by scoring percentage of worms with intact 4-CEP neurons in AIC106 and DMSO-control treatment. [N=3 independent experiments (mean±SD). ***p<0.001, by one-way ANOVA with Tukey's multiple comparisons test]. Motor function in (panel B) day-7 NL5901 and (panel C) day-5 CL2006 worms were quantified by scoring number of thrashes for an individual worm over the period of 30 seconds (dots) in AIC106 and DMSO-control treatment. [N=3 independent experiments (mean±SD). **p<0.01, ***p<0.001 and ****p<0.0001, by one-way ANOVA with Tukey's multiple comparisons test]. Panel D) Motor function in temperature sensitive (enhanced paralysis at 25° C.) CL4176 worms was determined by scoring percent of worms paralyzed in AIC106 and DMSO-control treatment. [N=3 independent experiments (mean±SD). **p<0.01, by one-way ANOVA with Tukey's multiple comparisons test]. Panel E) Lifespan analysis of CL6049 worms exposed to AIC106 and DMSO-control. [N=2 independent experiments, Treatment (median survival in days, P value compared to DMSO-control): DMSO-control (12), AIC106 10 μM (15, p<0.01), 20 μM (15, p<0.0001) and 50 μM (17, p<0.0001). P-value calculated by Logrank test]. Panel F) Effect of AIC106 on polyQ40 aggregation was determined by scoring number of polyQ40-YFP fluorescent puncta in an individual AM141 worm treated with AIC106 and DMSO-control. [N=3 independent experiments (mean±SD). *p<0.05 and ***p<0.001, by one-way ANOVA with Tukey's multiple comparisons test].\nFIG. 27, panels A-C: AIC106 induces mitophagy and increases lifespan. Panel A) Relative fold change in mRNA of key mitophagy genes including dct-1, pink-1 and pdr-1 was quantified by qRT-PCR after DMSO-control and AIC106 24 hours treatment in young adult N2 and hlh-30(tm1978) mutants. [N=3 independent experiments (mean±SD). **p<0.01 and ****p<0.0001, by two-way ANOVA with Sidak's multiple comparisons test]. Short exposure (1 week) of AIC106 increased survival of (panel B) wild type N2: DMSO-control (median-12 days), AIC106 50 μM (median-15 days, p<0.0001) and (panel C) mitophagy deficient pdr-1(tm598): mutant DMSO-control (median-15 days), AIC106 50 μM (median −17 days, p<0.001)]. [N=3 independent experiments, P value compared to respective DMSO-control and calculated by Logrank test).\nFIG. 28, panels A-B: AIC106 prevents neuronal loss and proteotoxicity in strains expressing human neurotoxic proteins. Panel A) Motor function in day-7 NL5901 were quantified by scoring number of thrashes for an individual worm over the period of 30 seconds (dots) in AIC106 and DMSO-control treatment. [N=3 independent experiments (mean±SD). ***p<0.001 and ****p<0.0001, by one-way ANOVA with Tukey's multiple comparisons test]. Panel B) Lifespan analysis of CL6049 worms exposed to AIC106 and DMSO-control. [N=2 independent experiments, Treatment (median survival in days, P value compared to DMSO-control): DMSO-control RNAi (18), CL6049-AIC106 control RNAi (21, p<0.0001), CL6049-AIC106 hlh-30 RNAi (17, p<0.0001) and 50 μM (17, p<0.0001). P-value calculated by Logrank test].\nLifespan assays for CL6049 and pdr-1(tm598) strains was performed after treating day-1 adult worms with DMSO or AIC106. A synchronized 35-40 young day-1 adult worms were transferred to each 35 mm compound-treated plates supplemented with FuDR containing control DMSO or AIC106 and kept at 20° C. Worms were scored as alive, dead, or lost every alternate day. […] Worms that died from causes other than aging, such as sticking to the plate walls, internal hatching of eggs (bagging), or gonadal extrusion were censored as lost. Worms were transferred to fresh-drugged plates every 3-5 days. All lifespan experiments were performed at 20° C."}, "[2]": {"system": "worms expressing human Abeta and alpha-synuclein", "assay": "Neurodegenerative C. elegans models expressing human Abeta and alpha-synuclein (Example 1)", "format": "in vivo", "conditions": "worms expressing human Abeta and alpha-synuclein (FIG. 11)", "procedure": "FIGS. 11A-11D illustrate that coumarin 106 (“C1”, “AIC106”) is protective in a TFEB-dependent manner in C. elegans models that express human neurotoxic proteins. FIG. 11A) Transgenic worm strain expressing human alpha-synuclein under control of the dopamine-specific promoter grown on control or HLH-30 RNAi were exposed to 20 μM C1 versus DMSO-only controls on day-1 of adulthood. GFP+ cell counts were performed in young adults. Values represent number of animals displaying no DAergic cell loss; pooled results from 2 independent experiments. FIG. 11B) Transgenic worm strain expressing human alpha-synuclein under control of the muscle-specific promoter grown on control or HLH-30 RNAi were exposed to 20 μM C1 versus DMSO-only control on day-1 of adulthood followed by transfer to fresh plates every alternative day. Number of trashes per 30 sec were measured at day-6 and day-7 (n>60). *p<0.03, ***p<0.0008, ****p<0.0001. FIG. 11C) Transgenic worms expressing Abeta tagged with GFP within glutaminergic neurons grown on control or HLH-30 RNAi were exposed to 50 or 200 μM C1 versus DMSO-only controls on day-1 of adulthood. GFP+ cell counts were performed in young adults. Values represent % intact neurons. […] Number of trashes per 30 sec were measured at day-6 and day-7 (n>60). *p<0.03, ****p<0.0001. […]"}}}
{"smiles": "O=c1oc2c3c4c(cc2c2c1CCC2)CCCN4CCC3", "note": "[C1, 2,3,6,7,10,11-Hexahydro-1H,5H-cyclopenta(3,4)(1)benzopyrano(6,7,8-ij)quinolizin-12(9H)-one]", "values": [{"measurement": "median survival", "setting": "[1]; CL6049, 50 μM as listed in FIG. 28 panel B legend", "value": 17, "unit": "days"}, {"measurement": "median survival", "setting": "[1]; CL6049, control RNAi, DMSO-control RNAi 18", "value": 21, "unit": "days"}, {"measurement": "median survival", "setting": "[1]; CL6049, hlh-30 RNAi", "value": 17, "unit": "days"}, {"measurement": "median survival", "setting": "[1]; CL6049 worms, 10 μM, DMSO-control 12", "value": 15, "unit": "days"}, {"measurement": "median survival", "setting": "[1]; CL6049 worms, 20 μM, DMSO-control 12", "value": 15, "unit": "days"}, {"measurement": "median survival", "setting": "[1]; CL6049 worms, 50 μM, DMSO-control 12", "value": 17, "unit": "days"}, {"measurement": "human TDP-43 toxicity (survival)", "setting": "[1]; CL6049 worms, dose dependent", "value": "protected against human TDP-43 toxicity"}, {"measurement": "lifespan", "setting": "[1]; short treatment (1 week post-development)", "value": "significant increase in lifespan of both wild type N2 and pdr-1 mutant"}, {"measurement": "protection in neurodegenerative C. elegans models", "setting": "[2]", "value": "protection in a TFEB-dependent manner"}]}
